In patent US20240116918A1, “SUBSTITUTED TRICYCLIC COMPOUND AS PRMT5 INHIBITOR AND USE THEREOF” (NANJING SANHOME PHARMACEUTICAL CO., LTD., priority 2019, published 2024):

Test system: Z-138 cells
Assay: In vitro cell activity, Z-138 cells, CellTiter-Glo
Format: cell-based
Conditions: Z-138, 168 h, human mantle cell lymphoma cells, 7 days
Description: Test compounds: the compounds of the present invention prepared in the above example. Each compound was formulated into a 10 mM stock solution with DMSO, and finally diluted into 8 concentrations for detection, with the final concentrations being 33333.00 nM, 6666.60 nM, 1333.32 nM, 266.66 nM, 53.33 nM, 10.67 nM, 2.13 nM, and 0.43 nM for experiments in Z-138 cells.
2.1.1 Z-138 cell thawing: The cryovial for Z-138 cells was taken out from a liquid nitrogen tank and placed in a 37° C. water bath, and shaken gently for thawing as soon as possible. After thawing, the cryovial was taken out, and sterilized with an alcohol cotton ball, after which the cap was unscrewed. The cell fluid was drawn and injected into a centrifuge tube. 1 mL of complete medium containing 10% horse serum was added, and mixed uniformly. The tube was placed in a centrifuge, and centrifuged at 1000 rpm for 5 min. Afterwards, the supernatant was discarded, and complete medium was added. The mixture was pipetted repeatedly until the cells were completely dispersed and resuspended. The mixture was inoculated in a petri dish at an appropriate concentration, and cultured in a CO2 incubator at 37° C., 5% CO2, and 95% humidified air.
2.2.1 Z-138 cell culture and passage: The cells grew to about 80-90%. The medium (IMDM medium+10% horse serum+1% penicillin-streptomycin) was transferred to a 15 mL centrifuge tube, and centrifuged at 1000 rpm for 5 min. The supernatant was removed. The cells were resuspended in complete medium, and inoculated in a petri dish at the desired density. The dish was placed in an incubator at 37° C., 5% CO2, and 95% humid air. The culture medium was replenished every 2-3 days or the passage was carried out, depending on the cell growth.
After passage, Z-138 cells were resuspended in complete medium at a density of 1000 cells/well and inoculated in a 96-well culture plate. The 36 wells at the outer circumference of the 96-well plate were filled with 200 μL of PBS to prevent the culture conditions of the inner plate wells from being too different from each other due to the faster evaporation of medium at the edge. The leftmost column of the 60 inner wells were blank wells, which were not added with cells, but filled with equal volume of PBS. The remaining 54 wells were subjected to cell plating with a multichannel pipette, to each well was added 100 μL of culture medium containing corresponding cells. After cell plating was finished, the 96-well plate was tapped to make the cells evenly suspended, and placed in a 5% CO2 incubator and cultured at 37° C. for 24 h.
For Z-138 cells, in addition to the original medium (100 μL), 50 μL (3×) of drug was added, and duplicate wells were set for each concentration group. The plate was placed in a CO2 incubator and further cultured for 7 days. […]

SMILES | IC50
CC(=O)N1CCC(Nc2cc(C(=O)NC[C@H](O)CN3CCc4ccccc4C3)ncn2)CC1 [Compound A, (S)-6-((1-Acetylpiperidin-4-yl)amino)-N-(3-(3,4-dihydroisoquinolin-2(1H)-yl)-2-hydroxypropyl)pyrimidine-4-carboxamide] | 19.5 nM
CC(=O)N1CCC(Nc2ccc3c(c2)C(=O)N(C[C@H](O)CN2CCc4ccccc4C2)CC32CC2)CC1 [Compound B, (R)-7′-((1-Acetylpiperidin-4-yl)amino)-2′-(3-(3,4-dihydroisoquinolin-2(1H)-yl)-2-hydroxypropyl)-2′,3′-dihydro-1′H-spiro[cyclopropane-1,4′-isoquinolin]-1′-one, reference compound] | 4.33 nM
CC(=O)N1CCC(Nc2cc3c(cn2)C2(CC2)CN(C[C@H](O)CN2CCc4ccccc4C2)C3=O)CC1 [Example 1, (R)-7′-((1-acetylpiperidin-4-yl)amino)-2′-(3-(3,4-dihydroisoquinolin-2(1H)-yl)-2-hydroxypropyl)-2′,3′-dihydro-1′H-spiro[cyclopropane-1,4′-[2,6]naphthyridin]-1′-one] | 3.07 nM
CC(=O)N1CC2(CC(Nc3cc4c(cn3)C3(CC3)CN(C[C@H](O)CN3CCc5ccccc5C3)C4=O)C2)C1 [Example 2, (R)-7′-((2-acetyl-2-azaspiro[3.3]hept-6-yl)amino)-2′-(3-(3,4-dihydroisoquinolin-2(1H)-yl)-2-hydroxypropyl)-2′,3′-dihydro-1′H-spiro[cyclopropane-1,4′-[2,6]naphthyridin]-1-one] | 2.2 nM
